# Data from patent publication US12605358B2, “Composition for preventing or treating nervous system diseases comprising compound that inhibits mTOR signaling pathway as active ingredient” (ALIAD BIOPHARMA, priority 2021, dated 2026).
# Key:
# [1] = system: primary cultured cerebral neurons; test: Neuron protective efficacy against Aβ toxicity (DAPI cell count); format: cell-based, rat; details: Aβ 0.5 or 1 μM, HN-1703 0.1 or 0.5 μM, 12 or 24 hours; Aβ alone reduced viability by 50% or more; FIGS. 5A, 5B
# Description: Primary cultured neurons from the cerebral cortex of rat embryos (E16) were treated with […] or 1 μM Aβ and 0.1 μM or 0.5 μM HN-1703 for 12 or 24 hours. Cell viability was evaluated by measuring the number of cells stained with DAPI.
# Aβ has strong toxicity to neurons, and the death of neurons caused by Aβ accumulated in the brain is a major cause of Alzheimer's disease. To evaluate whether HN-1703 for inhibiting the mTOR signaling pathway and promoting autophagy may directly protect neurons from Aβ toxicity, an inhibitory effect of HN-1703 on Aβ-induced apoptosis of primary cultured cerebral neurons was evaluated, and the number of live cells stained with DAPI was quantified and shown in FIGS. 5A and 5B.
# [2] = system: 5xFAD transgenic mice; test: Senile plaques removal, Thioflavin-S staining of brain slices; format: in vivo
# Description: (§1) 5xFAD animals were administered with HN-1703 at three doses for 14 days to male heterozygotes aged 6 months (all born within 3 days). The behaviors of mice were measured in a dark cycle in which the mice were active while alternating light and dark in a 12-hour cycle in a breeding room chamber, and the mice were freely accessible to food and water and bred in compliance with experimental animal ethical guidelines of Kyung Hee University. In each group, the HN-1703 was intraperitoneally injected at the same time once a day in a volume of 100 μl to 12 mice in a normal group (wild type littermate), 9 5xFAD mice in a vehicle (DMSO administration), 8 5xFAD mice in a 5 mg/kg administered group, 9 5xFAD mice in a 10 mg/kg administered group, and 9 5xFAD mice in a 20 mg/kg administered group. […] In a behavioral measurement room, humidity (40 to 60%) and temperature (22 to 26° C.) were maintained, and reflected light was maintained to avoid sound and light effects. Behavioral measures were measured in Y-maze, Morris Water Maze, and Passive Avoidance test for 18 days in sequence.
# (§2) A brain slice immunostaining method was modified and used as described in Heo H et al. (J Ethnopharmacol, 2009). Mice were transcardially perfused with 4% PFA. After being immersed and fixed in 4% PFA for 4 hours, the brain tissue was unfrozen in 30% sucrose, frozen in an optimal cutting temperature (OCT) mixture, and stored at −80° C. Brain tissue slices were sectioned in a coronal direction at a thickness of 35 μm. The brain tissue slices were immersed in a storage solution (30% glycerol, 30% ethylene glycol, PBS) and stored at 4° C. The stored brain slices were permeabilized in 0.5% Triton X-100 for 20 minutes and shaken in 2 N HCl for 30 minutes at 37° C. Then, the brain slices were blocked in a free-floating state for 2 hours in 15% standard serum, 3% bovine serum albumin (BSA, bio-WORLD, Dublin, OH, USA) and 0.1% Triton X-100. The slices were shaken with a first antibody for 16 hours at 4° C. Thereafter, a second antibody complementary to the first antibody was attached at room temperature (22±1° C.) for 45 minutes. Then, the nuclei were washed with physiological saline (PBS) containing 1 μg/ml PI (propidiumiodide, Sigma) or DAPI (1:4000), and then placed on a slide glass and sealed using an aqueous mount, and observed under a confocal scanning microscope for tissue observation (LSM 810 Carl Zeiss, Oberkochen, Germany).
# Brain slices segmented in a coronal direction were selected from the front to the back of the brain by one slice every 5 slices, and 5 to 11 slices for each animal's brain were co-stained with thioflavin-S and DAPI.
# FIG. 7 is confocal scanning micrographs of the hippocampal dentate gyrus, and the entorhinal cortex and temporal lobe of the cerebral cortex, after staining senile plaques by treating the brain slice with Thioflavin-S, and FIG. 8 illustrates quantifying the entire area and staining intensity of the senile plaques stained with Thioflavin-S.
# [3] = system: 5xFAD transgenic mice; test: Autophagy indicators in brain (LC3/GFAP and LC3/MAP2 staining, LC3 immunoblot); format: in vivo
# Description: as §1, §2
# The first antibody used antibodies such as LC3-II (MBL, PM036), MAP2 (sigma, m4403) [for LC3/MAP2 double staining], 6E10 (biolegend, 803001) [for LC3/6E10; ICC double staining], GFAP (abcam, ab53554) [for LC3/GFAP double staining], Iba-1 (wako, 011-27991) [for LC3/IBA1 double staining], Iba-1 (Wako, 019-19741) [for ThioS/Iba1/PI triple staining], Sox2 (R&D system, MAB2018) [for SOX2/DCX/NeuN triple staining], DCX (Santa Cruz, sc8066) [for SOX2/DCX/NeuN triple staining], AT8 (Invitrogen, MN1020) [for AT8/MAP2 double staining], MAP2 (abcam, ab32454) [for AT8/MAP2 double staining], NeuN (Millipore, MAB377B), Tuj1 (Sigma, T8660), Nestin (Millipore, MAB353), GFAP (Chemicon), and the like, and the second antibody used Alexa 488, Cy3, Alexa 488 (Invitrogen, A21202), Cy3 (Jackson lab, 715-165-151), and Alexa 488 (Jackson lab, 711-546-152).
# When PS1 was KO, lysosome acidification was weakened and autophagy was inhibited (Lee et al. (2010) Cell 141: 1146-1158), and in 5xFAD mice with mutations in PS1, the generation of autophagy was somewhat attenuated and may be activated in the presence of endogenous WT PS1. In other words, there were example in which cellular conditions that inhibit mTOR, such as lack of amino acids, or suppression of inflammation activated autophagy, and treatment with a cAMP or β-adrenergic agonist restored lysosomal acidification in PS1 mutant cells (Coffey et al. (2014) Neuroscience 263: 111-124). […]
# [4] = system: 5xFAD transgenic mice; test: Autophagy activation in neurons and microglia (Iba-1/MAP2/LC3 staining); format: in vivo; details: FIG. 16
# Description: as §1
# as §2, with “Germany). […]” for “Germany).”
# FIG. 16 illustrates confocal scanning micrographs of the hippocampal dentate gyrus region after triple staining with an Iba-1 antibody, an MAP2 antibody, and an LC3 antibody, and quantifying the number of LC3+/MAP2+ cells, the number of LC3+/Iba-1+ cells, the number of MAP2+ cells, and the number of Iba-1+ cells.
# [5] = compared to the 5xFAD-DMSO control group, FIG. 8
smiles,measurement,setting,value
"COc1cc(OC)c2c(=O)c3cc4c(cc3oc2c1)OCO4 [HN-1703, 7,9-dimethoxy-10H-[1,3]dioxolo[4,5-b]xanthen-10-one]",cell viability (number of live cells stained with DAPI) under Aβ toxicity,[1],viability was significantly increased
same,reduction of senile plaques compared to the 5xFAD-DMSO group,"[2]; 20 mg/kg, dentate gyrus, FIG. 7",≥ 70%
same,senile plaques stained with Thioflavin-S,"[2]; 5 to 20 mg/kg, hippocampal dentate gyrus, entorhinal cortex, temporal lobe, FIG. 7",reduced in a dose-dependent manner
same,number of senile plaques having sizes of 10 to 20 μm and 20 μm or more,"[2]; all brain regions tested, compared to the 5xFAD-DMSO control group, FIG. 8",decreased in a dose-dependent manner
same,entire area of senile plaques,[2]; [5],decreased in a dose-dependent manner
same,staining intensity of senile plaques,[2]; [5],decreased in a dose-dependent manner
same,LC3-II staining,"[3]; 5 mg/kg to 10 mg/kg, FIG. 12",stained at the level of a WT normal group
same,LC3-II increase compared to the 5xFAD-DMSO control group,"[3]; 20 mg/kg, FIG. 12",2.5 times
same,LC3-II increase compared to the WT normal group,"[3]; 20 mg/kg, FIG. 12",1.4 times
same,LC3-II staining in the axon of the hippocampal pyramidal neuron,"[3]; 20 mg/kg, FIG. 13",recovered to the level of the WT normal group
same,autophagic vacuoles near the nuclei of large neurons in the subgranular cell layer of the hippocampus,[3]; FIG. 14,significantly increased
same,ratio of the autophagy activation marker LC3-II/LC3-I (brain immunoblot),[3]; FIG. 15,increased
same,LC3-II staining,"[3]; hippocampal dentate gyrus, compared to a 5xFAD-DMSO control group, FIG. 12",increased in a dose-dependent manner
same,astrocytes stained with the GFAP antibody,"[3]; increased in 5xFAD-DMSO vs WT, FIG. 12",decreased to a normal level
same,"activated microglia, Iba-1+ cells","[4]; 5 to 20 mg/kg, compared to the 5xFAD-DMSO control group",greatly reduced
same,number of neurons double-stained with MAP2 and LC3-II,[4],increased in a dose-dependent manner
same,number of MAP2+ neurons in the dentate gyrus,[4]; approaches the WT normal group,increased in a dose-dependent manner
same,autophagy-activated microglia double-stained with LC3-II,"[4]; compared to the 5xFAD-DMSO control group, dose-dependent",increased twice or more
